Our source for the IC50 values is patent publication US8053447B2, “11β-hydroxysteroid dehydrogenase type 1 active compounds” (High Point Pharmaceuticals, LLC, priority 2006, dated 2011).

T1 sequence (P28845 whole entry): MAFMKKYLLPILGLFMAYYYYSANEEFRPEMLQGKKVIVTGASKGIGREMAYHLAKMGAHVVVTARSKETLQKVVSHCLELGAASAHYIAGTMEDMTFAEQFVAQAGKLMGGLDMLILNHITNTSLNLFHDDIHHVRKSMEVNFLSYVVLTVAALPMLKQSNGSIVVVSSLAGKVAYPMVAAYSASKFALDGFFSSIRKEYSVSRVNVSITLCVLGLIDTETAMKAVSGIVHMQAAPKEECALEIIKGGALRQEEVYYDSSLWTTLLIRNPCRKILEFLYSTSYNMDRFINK

The experiment concerns the target T1, h-11βHSD1 (Homo sapiens, UniProt P28845).
T1 construct: made in house
The experiment can be described thus: 11βHSD1 enzyme assay (scintillation proximity assay, 3H-cortisone to 3H-cortisol). It counts as biochemical. The conditions noted are these: extract of yeast transformed with h-11βHSD1; 120 nM 3H-cortisone, 4 mM β-NADPH, 60 min at 30° C., SPA. Here is the method:
Pharmacological Methods 11βHSD1 Enzyme Assay Materials
^3H-cortisone and anti-rabbit Ig coated scintillation proximity assay (SPA) beads were purchased from Amersham Pharmacia Biotech, β-NADPH was from Sigma and rabbit anti-cortisol antibodies were from Fitzgerald. An extract of yeast transformed with h-11βHSD1 (Hult et al., FEBS Lett, 441, 25 (1998)) was used as the source of enzyme. The test compounds were dissolved in DMSO (10 mM). All dilutions were performed in a buffer containing 50 mM TRIS-HCl (Sigma Chemical Co), 4 mM EDTA (Sigma Chemical Co), 0.1% BSA (Sigma Chemical Co), 0.01% Tween-20 (Sigma Chemical Co) and 0.005% bacitracin (Novo Nordisk A/S), pH=7.4. Optiplate 96 wells plates were supplied by Packard. The amount of ^3H-cortisol bound to the SPA beads was measured on TopCount NXT, Packard.
h-11βHSD1, 120 nM ^3H-cortisone, 4 mM β-NADPH, antibody (1:200), serial dilutions of test compound and SPA particles (2 mg/well) were added to the wells. The reaction was initiated by mixing the different components and was allowed to proceed under shaking for 60 min at 30° C. The reaction was stopped be the addition of 10 fold excess of a stopping buffer containing 500 μM carbenoxolone and 1 μM cortisone. Data was analysed using GraphPad Prism software.
(In a scintillation proximity assay essentially only radioactivity close to the scintillant gives light.)
Compound `Cn1cnc(S(=O)(=O)N2CCC(COc3ccc(C(=O)N4CCCC5CCCCC54)cc3)CC2)c1` (stereo not shown) [Example 2f, {4-[1-(1-Methyl-1H-imidazole-4-sulfonyl)-piperidin-4-yl-methoxy]-phenyl}-(octahydro-quinolin-1-yl)-methanone] came in with an IC50 of 134 nM. This lies in the sub-micromolar range.

Compound `CC1(C)CC2CC(C)(CN2C(=O)c2ccc(OC3CCC(C(=O)O)C3)cc2)C1` (stereo not shown) [Example 8a, 3-[4-(1,3,3-Trimethyl-6-aza-bicyclo[3.2.1]octane-6-carbonyl)-phenoxy]-cyclopentane carboxylic acid] yielded an IC50 of 604 nM. Compared with the last compound, the IC50 is about 4.5-fold higher.

Take `O=C(C1CC1)N1CCC(Oc2ccc(C(=O)N3CC4CCCC3C4)cc2)CC1` (stereo not shown) [Example 4b, (6-Aza-bicyclo[3.2.1]oct-6-yl)-[4-(1-cyclopropane-carbonyl-piperidin-4-yloxy)-phenyl]-methanone]: the IC50 came out at 2310 nM.

`O=C(c1ccc(N2[C@@H]3CC[C@H]2CC(Oc2ccccn2)C3)cc1)N1CCCC2CCCCC21` (stereo partly drawn) [Example 2h, (Octahydro-quinolin-1-yl)-{4-[(1S,5R)-3-(pyridin-2-yloxy)-8-aza-bicyclo[3.2.1]oct-8-yl]-phenyl}-methanone]: the concentration for half-maximal inhibition (IC50) is 359 nM. This IC50 is about 6.4-fold lower than that of the compound before.

`CC(C)CC(=O)N1CCC(Oc2ccc(C(=O)N3CC4CCC(CC4)C3)cc2)CC1` [Example 3b, 1-{4-[4-(3-Aza-bicyclo-[3.2.2]nonane-3-carbonyl)-phenoxy]-piperidin-1-yl}-3-methyl-butan-1-one] yielded an IC50 of 1400 nM.

`O=C(NC1C2CC3CC(C2)CC1C3)c1ccc(OC2CCC(NC(=O)C3CC3)CC2)cc1` (mixture of isomers) [Example 2c, cis/trans-4-[4-(Cyclopropanecarbonyl-amino)-cyclohexyl-oxy]-N-adamantan-2-yl-benzamide] registered an IC50 of 118 nM. Against the preceding compound, the IC50 is about 12-fold lower.

In turn, `O=C(NC1C2CC3CC(C2)CC1C3)c1ccc(OC2CCN(C(=O)C3CC3)CC2)cc1` (stereo not shown) [Example 1b, 4-(1-Cyclopropanecarbonyl-piperidin-4-yloxy)-N-ada-mantan-2-yl-benzamide] displayed an IC50 of 205 nM. This IC50 lies about 1.7-fold higher than the previous one.

For the compound `O=C(NC1C2CC3CC(C2)CC1C3)c1ccc(N2CC3CC2CO3)cc1` (stereo not shown) [Example H, 4-(2-Oxa-5-aza-bicyclo[2.2.1]hept-5-yl)-N-adamantan-2-yl-benzamide], the IC50 was found to be 43 nM.

`CC(C)CC(=O)N1CCC(Oc2ccc(C(=O)NC3C4CC5CC(C4)CC3C5)cc2)CC1` (stereo not shown) [Example 2b, 4-[1-(3-Methyl-butyryl)-piperidin-4-yloxy]-N-ada-mantan-2-yl-benzamide] gave an IC50 of 284 nM.

As for `Cc1ccc(S(=O)(=O)NC(=O)N2CCC(Oc3ccc(C(=O)N4CC5CCC(CC5)C4)cc3)C2)cc1` (stereo not shown) [Example 3g, N-{3-[4-(3-Aza-bicyclo-[3.2.2]nonane-3-carbonyl)-phenoxy]-pyrrolidine-1-carbonyl}-4-methyl-benzenesulfonamide], the IC50 stood at 2820 nM.

In turn, `O=C(NC1C2CC3CC(C2)CC1C3)c1ccc(O[C@H]2CC[C@@H](NS(=O)(=O)c3ccccn3)CC2)cc1` (stereo partly drawn) [Example 3c, Cis-N-Adamantan-2-yl-4-[4-(pyridine-2-sulfonylamino)-cyclohexyloxy]-benzamide] came in with an IC50 of 96 nM.

The compound `CC(C)CC(=O)N1CCC(Oc2ccc(C(=O)N3CC4CCCC3C4)cc2)CC1` (stereo not shown) [Example 5b, 1-{4-[4-(6-Aza-bicyclo[3.2.1]-octane-6-carbonyl)-phenoxy]-piperidin-1-yl}-3-methyl-butan-1-one] returned a concentration for half-maximal inhibition (IC50) of 1300 nM.

Compound `O=C(N[C@H]1CC[C@@H](Oc2ccc(C(=O)N3CCCC4CCCCC43)cc2)CC1)C1CC1` (stereo partly drawn) [Example 6c, Cis-Cyclopropanecarboxylic acid {4-[4-(octahydro-quino-line-1-carbonyl)-phenoxy]-cyclohexyl}-amide] yielded an IC50 of 120 nM.

Compound `NC(=O)C1CCC(Oc2ccc(C(=O)N3CCCC4CCCCC43)cc2)CC1` (stereo not shown) [Example 13a, 4-[4-(Octahydro-quinoline-1-carbonyl)-phenoxy]-cyclo-hexanecarboxylic acid amide] returned an IC50 of 73 nM.

`O=C(O)c1ccc(S(=O)(=O)N2CCC(COc3ccc(C(=O)N4CCCC5CCCCC54)cc3)CC2)cc1` (stereo not shown) [Example 9f, 4-{4-[4-(Octahydro-quinoline-1-carbonyl)-phenoxymethyl]-piperidine-1-sulfonyl}-benzoic acid]: the IC50 came to 163 nM. Compared with the last compound, the IC50 is about 2.2-fold higher.

Consider `CN(C)C(=O)C1CCC(Oc2ccc(C(=O)N3CC4(C)CC3CC(C)(C)C4)cc2)CC1` (stereo not shown) [Example 12a, 4-[4-(1,1,3,3-Trimethyl-6-aza-bicyclo[3.2.1]octane-6-carbonyl)-phenoxy]-cyclo-hexane carboxylic acid di-methylamide], for which the midpoint of inhibition, the IC50, lay at 111 nM.

For orientation: IC50 means the midpoint of a concentration-inhibition curve. High values mean lower potency, low ones higher potency.
